The values below come from US6573286B1, “2-(2,6-disubstituted phenyl)-4-aryl-5-alkyl-1,3-oxazoline compounds” (Dow AgroSciences LLC, priority 2002, dated 2003).

Holding throughout (format): in vivo
Experiment [1] relates to cabbage looper (Trichoplusia ni). Description: Insecticidal test for cabbage looper, treated cabbage leaf disc. The following applies: 2nd instar larvae on dipped cabbage leaf discs, 5 days; for pest or weed control at 400 ppm: Trichoplusia ni, foliar, 120 h, read-out: CL: activity against cabbage looper (% Control rating). How it is done:
(§1) Insecticidal test for tobacco budworm (Heliothis virescens), beet armyworm (Spodoptera exigua), and cabbage looper (Trichoplusia ni). To prepare test solution, the test compound was formulated at 400 ppm in 7.5 mL of 2 acetone:1 tap water. 250 μL of the test solution was pipetted upon the surface of 8 mL of lepidopteran diet (modified Shorey) contained in each of five one-ounce plastic cups (one cup=1 replication). […] After air-drying, the treated leaf discs were placed individually into one-ounce plastic cups. Each dried, treated cotton cotyledon disc was infested with a 2nd instar tobacco budworm larva, and each cabbage leaf disc was infested with a 2nd instar cabbage looper larva. Cups containing the treated substrates and larvae were capped and then held in a growth chamber at 25° C., 50-55% RH, and 14 hr light:10 hr dark for 5 days.

Experiment [2] concerns tobacco budworm (Heliothis virescens). Description: Insecticidal test for tobacco budworm, treated cotton cotyledon leaf disc. The following applies: 2nd instar larvae on dipped cotton cotyledon discs, 5 days; for pest or weed control at 400 ppm: Heliothis virescens, foliar, 120 h, read-out: TBW: activity against tobacco budworm (% Control rating). The protocol: as §1
For experiment [3], the system named is beet armyworm (Spodoptera exigua). Description: Insecticidal test for beet armyworm, treated lepidopteran diet. The following applies: 2nd instar larvae on treated diet, 5 days; for pest or weed control at 400 ppm: Spodoptera exigua, 120 h, read-out: BAW: activity against beet armyworm (% Control rating). How it is done: as §1
Experiment [4] concerns two-spotted spider mite (Tetranychus urticae). Description: Insecticidal test for two-spotted spider mite, ovicide method. The following applies: ovicide method on cotton leaf discs, 6 days; for pest or weed control at 2.5 ppm: Tetranychus urticae, foliar, 144 h, read-out: SM: activity against two-spotted spider mite (% Control rating). How it is done:
Insecticidal test for two-spotted spider mite (Tetranychus urticae) Ovicide Method: Ten adult female two-spotted spider mites were placed on eight 2.2 cm leaf discs of cotton leaf, allowed to oviposit over 24 hours, and thereafter removed. […] Discs were placed on an agar substrate and held at 24° C. and 90% RH for 6 days.

Experiment [5] relates to Sweetpotato Whitefly (Bemisia tabacia). Description: Insecticidal test for Sweetpotato Whitefly, sprayed cotton plants. The following applies: 200 ppm spray, large nymphs counted after 13 days. How it is done:
Insecticidal test for Sweetpotato Whitefly (Bemisia tabacia) Four mg of each test compound were dissolved by adding 4 mL of a 90:10 acetone:ethanol solvent mixture to the vial containing the sample compound. This solution was added to 16 mL of water containing 0.05% Tween 20 surfactant to produce 20 mL of a 200 ppm spray solution. Five-week-old cotton plants reared in a greenhouse were stripped of all foliage except for the two uppermost true leaves that were greater than 5 cm in diameter. These plants were then placed into a laboratory colony of whiteflies for two days for oviposition by the colony females. All whiteflies were then removed from the test plants with pressurized air. The spray solution was then applied to the test plants with a hand-held syringe fitted with hollow cone nozzle. One mL spray solution was applied to each leaf top and bottom for a total of 4 mL per plant. Four replications of each test compound utilized a total of 16 mL spray solution. Plants were air dried and then placed in a holding chamber (28° C. and 60% RH) for 13 days. Compound efficacy was evaluated by counting, under an illuminated magnifying glass, the number of large nymphs (3rd-4th instar) per leaf. Percent control based on reduction of large nymphs of a test compound compared to solution-only (no test compound) sprayed plants is reported in Table 1-8.

Some results are limits rather than exact numbers.

With `C[C@H]1OC(c2c(F)cccc2F)=N[C@@H]1c1ccccc1` (racemic) [Compound 35, (4R,5R)- and (4S,5S)-4-phenyl-2-(2,6-difluorophenyl)-5-methyl-4,5-dihydro-1,3-oxazole], the pest or weed control at 400 ppm in experiment [1] and in experiment [2] was under 50% throughout.

On to `C[C@H]1OC(c2c(F)cccc2F)=N[C@@H]1c1ccc(-c2ccc(OC(F)(F)F)cc2)cc1` [Compound 53, (4R,5R)-2-(2,6-difluorophenyl)-5-methyl-4-[4′-(trifluoromethoxy)-1,1′-biphenyl-4-yl]-4,5-dihydro-1,3-oxazole], for which the pest or weed control at 400 ppm in experiment [1] and in experiment [3] was 90 to 100% throughout. For the same molecule, the pest or weed control at 2.5 ppm in experiment [4] was 90 to 100%.

Consider `C[C@H]1OC(c2c(F)cccc2Cl)=N[C@@H]1c1ccc(Br)cc1` (racemic) [Compound 23, (4R,5R)- and (4S,5S)-4-(4-bromophenyl)-2-(2-chloro-6-fluorophenyl)-5-methyl-4,5-dihydro-1,3-oxazole], for which the pest or weed control at 400 ppm in experiment [1] is under 50%; in experiment [2] it was 80 to 89%. The pest or weed control at 2.5 ppm in experiment [4] was in the range of 90 to 100%.

As to `Cc1ccccc1C1=N[C@H](c2ccc(Br)cc2)[C@H](C)O1` (racemic) [Compound 17, (4R,5S)- and (4S,5R)-4-(4-bromophenyl)-2-(2-methyl)-5-methyl-4,5-dihydro-1,3-oxazole], the pest or weed control at 400 ppm in experiment [1] and in experiment [2] was under 50% each time.

Take `C[C@@H]1OC(c2c(F)cccc2F)=N[C@H]1c1ccc(-c2ccccc2F)cc1` (racemic) [Compound 31, (4S,5S)- and (4R,5R)-2-(2,6-difluorophenyl)-4-(2′-fluoro-1,1′-biphenyl-4-yl)-5-methyl-4,5-dihydro-1,3-oxazole]: in experiment [1], the pest or weed control at 400 ppm was 90 to 100%.

As to `C[C@@H]1OC(c2c(F)cccc2F)=N[C@@H]1c1ccc(-c2ccc(C(F)(F)F)cc2)cc1` (mixture of isomers) [Compound 5, (4R,5S)- and 4S,5R)-2-(2,6-difluorophenyl)-5-methyl-4-[4′-(trifluoromethyl)-1,1′-biphenyl-4-yl]-4,5-dihydro-1,3-oxazole], the pest or weed control at 400 ppm in experiment [1] and in experiment [3] was 90 to 100% throughout. In addition, the pest or weed control at 2.5 ppm in experiment [4] was in the range of 90 to 100%.

On to `CCOc1ccc(-c2ccc([C@H]3N=C(c4c(F)cccc4F)O[C@H]3C)cc2)cc1` (racemic) [Compound 12, (4R,5S)- and (4S,5R)-2-(2,6-difluorophenyl)-4-(4′-ethoxy-1,1′-biphenyl-4-yl)-5-methyl-4,5-dihydro-1,3-oxazole], for which the pest or weed control at 400 ppm in experiment [1] lay within 90 to 100%; in experiment [3], 90 to 100%; in experiment [2] it was 80 to 89%.

As for `Cc1ccc(-c2ccc([C@@H]3N=C(c4c(F)cccc4F)O[C@H]3C)cc2)cc1C` (racemic) [Compound 29, (4S,5S)- and (4R,5R)-2-(2,6-difluorophenyl)-4-(3′,4′-dimethyl-1,1′-biphenyl-4-yl)-5-methyl-4,5-dihydro-1,3-oxazole], in experiment [1], the pest or weed control at 400 ppm lay in the range of 90 to 100%.

With `C[C@@H]1OC(c2c(F)cccc2F)=N[C@@H]1c1ccc(-c2ccccc2F)cc1` (racemic) [Compound 15, (4R,5S)- and (4S,5R)-2-(2,6-difluorophenyl)-4-(2′-fluoro-1,1′-biphenyl-4-yl)-5-methyl-4,5-dihydro-1,3-oxazole], the pest or weed control at 400 ppm in experiment [1] fell in the range of 90 to 100%.

Turning to `C[C@H]1OC(c2c(F)cccc2F)=N[C@@H]1c1ccc(-c2ccc(OC(F)(F)F)cc2)cc1` (racemic) [Compound 27, (4R,5R)- and (4S,5S)-2-(2,6-difluorophenyl)-4-(4′-trifluoromethoxy-1,1′-biphenyl-4-yl)-5-methyl-4,5-dihydro-1,3-oxazole], the “CL: activity against cabbage looper (% Control rating)” value in experiment [1] (400 ppm) is given as “A (90-100)”. The “BAW: activity against beet armyworm (% Control rating)” value in experiment [3] (400 ppm) is “A (90-100)”. Besides, in experiment [2] (400 ppm), the “TBW: activity against tobacco budworm (% Control rating)” value is given as “B (80-89)”. For the same molecule, in experiment [4] (2.5 ppm), the “SM: activity against two-spotted spider mite (% Control rating)” value is recorded as “A (90-100)”.

On to `C[C@H]1OC(c2c(F)cccc2F)=NC1c1ccc(-c2ccc3c(c2)OC(F)(F)O3)cc1` (mixture of isomers) [Compound 13, (4R,5S)- and (4S,5R)-4-[4-(2,2-difluoro-1,3-benzodioxol-5-yl)phenyl]-2-(2,6-difluorophenyl)-5-methyl-4,5-dihydro-1,3-oxazole], for which the pest or weed control at 400 ppm is 90 to 100% in experiment [1] and under 50% in experiment [2].

For `Cc1ccc(-c2ccc([C@@H]3N=C(c4c(F)cccc4F)O[C@@H]3C)cc2)cc1C` (racemic) [Compound 8, (4S,5R)- and (4R,5S)-2-(2,6-difluorophenyl)-4-(3′,4′-dimethyl-1,1′-biphenyl-4-yl)-5-methyl-4,5-dihydro-1,3-oxazole], the results for the pest or weed control at 400 ppm in experiment [1], in experiment [3] and in experiment [2] were 90 to 100%, 90 to 100% and 60 to 69%, respectively.

For `C[C@@H]1OC(c2c(F)cccc2F)=N[C@H]1c1ccc(-c2ccc(OC(F)(F)F)cc2)cc1` [Compound 47, (4S,5S)-2-(2,6-difluorophenyl)-5-methyl-4-[4′-(trifluoromethoxy)-1,1′-biphenyl-4-yl]-4,5-dihydro-1,3-oxazole], the pest or weed control at 400 ppm in experiment [1] and in experiment [3] was 90 to 100% throughout. Besides, in experiment [4], the pest or weed control at 2.5 ppm lay in the range of 90 to 100%.

For `CCOc1ccc(-c2ccc([C@@H]3N=C(c4c(F)cccc4F)O[C@H]3C)cc2)cc1` (racemic) [Compound 33, (4S,5S)- and (4R,5R)-2-(2,6-difluorophenyl)-4-(4′-ethoxy-1,1′-biphenyl-4-yl)-5-methyl-4,5-dihydro-1,3-oxazole], the pest or weed control at 400 ppm lay in the range of 90 to 100% in experiment [1], 90 to 100% in experiment [3] and 80 to 89% in experiment [2].

`C[C@@H]1OC(c2c(F)cccc2F)=N[C@H]1c1ccc(-c2ccc(C(F)(F)F)cc2)cc1` (racemic) [Compound 26, (4S,5S)- and (4R,5R)-2-(2,6-difluorophenyl)-5-methyl-4-[4′-(trifluoromethyl)-1,1′-biphenyl-4-yl]-4,5-dihydro-1,3-oxazole]: the pest or weed control at 400 ppm in experiment [1] and in experiment [3] was 90 to 100% each time. In addition, the pest or weed control at 2.5 ppm in experiment [4] lay within 90 to 100%.

On to `C[C@H]1OC(c2c(F)cccc2F)=N[C@H]1c1ccc(-c2ccc(OC(F)(F)F)cc2)cc1` (racemic) [Compound 6, (4S,5R)- and (4R,5S)-2-(2,6-difluorophenyl)-4-(4′-trifluoromethoxy-1,1′-biphenyl-4-yl)-5-methyl-4,5-dihydro-1,3-oxazole], for which the “WF: activity against whitefly (% Control rating)” value in experiment [5] is given as “B (80-89)”.

Take `C[C@H]1OC(c2c(F)cccc2F)=N[C@H]1c1ccc(-c2ccc(OC(F)(F)F)cc2)cc1` (stereo in doubt) [Compound 49, (4S,5R)-2-(2,6-difluorophenyl)-5-methyl-4-[4′-(trifluoromethoxy)-1,1′-biphenyl-4-yl]-4,5-dihydro-1,3-oxazole]: the pest or weed control at 400 ppm lay within 90 to 100% in experiment [1], 90 to 100% in experiment [3] and 80 to 89% in experiment [2]. For the same molecule, the pest or weed control at 2.5 ppm in experiment [4] lay in the range of 90 to 100%. In addition, the pest or weed control at 200 ppm in experiment [5] (Bemisia, 312 h, read-out: WF: activity against whitefly (% Control rating)) fell in the range of 80 to 89%.
